Data: patent US10941151B2, “Chiral N-acyl-5,6,7(8-substituted)-tetrahydro-[1,2,4]triazolo[4,3-a]pyrazines as selective NK-3 receptor antagonists, pharmaceutical composition, methods for use in NK-3 receptor mediated disorders and chiral synthesis thereof” (Ogeda SA, priority 2011, dated 2021)

How the values were obtained:
[1] = test system: circulating levels of luteinizing hormone (LH); test: Castrated male rat model, circulating luteinizing hormone (LH); assay type: in vivo; details: single intravenous 10 mg/kg dose, castrated male Sprague-Dawley rats, 1 hour after dosing
Text: Vehicle, N=10 rats; Compound n^o 1, N=9 rats.
Vehicle, n=5 rats; Compound n^o 19, n=5 rats.
In humans and rodents, castration is well-precedented to permit heightened, persistent GnRH signaling and consequent elevation of circulating LH. Thus, a castrated rat model is used to provide a broad index for measurement of LH inhibition as a marker of test compound inhibition of the GnRH signaling pathway.
Castrated adult male Sprague-Dawley (SD) rats (150-175 g,) were purchased from Janvier (St Berthevin, France). […] The animals were allowed 2 weeks of postoperative recovery prior to study. Animals were handled on a daily basis. Standard diet and tap water were provided ad libitum. Animal cage litters were changed once a week. On the study day, animals were acclimated to the procedure room for a period of one hour prior to the initiation of the experiment.
Compounds of the invention were formulated as a […] with 90 g/L (2-Hydroxypropyl)-β-CycloDextrin.
After basal sampling (T0) a single dose of compounds of the invention or vehicle was administrated intravenously to rats. Blood was then collected at 60 min post dosing. Blood samples were obtained via tail vein bleed, drawn into EDTA-containing tubes and centrifuged immediately. […] Serum LH levels were determined using radioimmunoas say kit from RIAZEN—Rat LH, Zentech (Liège, Belgium). […]

[2] = test system: circulating levels of testosterone; test: Gonad-intact adult male rat, circulating testosterone; assay type: in vivo; details: single intravenous 50 mg/kg dose, gonad-intact male Sprague-Dawley rats, over 210 minute test period (AUC)

SMILES	circulating LH levels [1]	plasma testosterone levels [2]
Cc1nc(-c2nnc3n2CCN(C(=O)c2ccc(-c4cccs4)cc2)[C@@H]3C)cs1 [Compound 1, (R)-(8-methyl-3-(2-methylthiazol-4-yl)-5,6-dihydro-[1,2,4]triazolo[4,3-a]pyrazin-7(8H)-yl)(4-(thiophen-2-yl)phenyl)methanone]	significantly suppressed	significantly suppressed
Cc1csc(-c2nnc3n2CCN(C(=O)c2ccc(-c4cccs4)cc2)[C@@H]3C)n1 [Compound 19, (R)-(8-methyl-3-(4-methylthiazol-2-yl)-5,6-dihydro-[1,2,4]triazolo[4,3-a]pyrazin-7(8H)-yl)(4-(thiophen-2-yl)phenyl)methanone]	significantly suppressed	
